Results: patent US20140228315A1, “BLOCKADE OF EOSINOPHIL PRODUCTION BY TOLL-LIKE RECEPTORS” (CHILDREN'S HOSPITAL MEDICAL CENTER, priority 2011, published 2014)

B1: IL-10: cytokine added at 2 ng/ml to IL-5-containing medium (protein, UniProt P22301 19-178, looked up)
Interleukin-10: SPGQGTQSENSCTHFPGNLPNMLRDLRDAFSRVKTFFQMKDQLDNLLLKESLLEDFKGYLGCQALSEMIQFYLEEVMPQAENQDPDIKAHVNSLGENLKTLRLRLRRCHRFLPCENKSKAVEQVKNAFNKLQEKGIYKAMSEFDIFINYIEAYMTMKIRN

These molecules were tested on developing eosinophils (eosinophil progenitors, EoPs) from LDBM cells (assay: Murine eosinophil liquid culture (LDBM cells, IL-5): eosinophil yield after TLR ligand or cytokine exposure). Details: cytokines added with IL-5 from Day 8 for the final 6 days of culture.
Assay type: cell-based, mouse
Protocol: The femurs and tibiae of mice were crushed in a sterile mortar and pestle containing 1×PBS with 2% FBS, and cells were collected by filtration through a 70-μm strainer. Red blood cells were lysed using RBC lysis buffer (Sigma, St. Louis, Mo.), and the remaining cells were subjected to centrifugation at 1700 rpm for 30 minutes on a Histopaque 1083 (Sigma) gradient. LDBM cells were aspirated from the interface, washed twice with 1× PBS and cultured at 0.8-1×10^6 cells per ml in 6-well plates or 24-well plates containing Complete Medium composed of Iscove's Modified Dulbecco's Medium (IMDM) with Glutamax (Gibco, Carlsbad, Calif.), 10% characterized FBS (HyClone, Hudson, N.H.), 2 mM L-glutamine (Gibco), 50 μM 2-ME (Sigma), and penicillin and streptomycin (Gibco) supplemented with 100 ng/mL stem cell factor (SCF; Peprotech, Rocky Hill, N.J.) and 100 ng/mL FLT3-ligand (FLT3L; Peprotech). On day 4, the medium in each non-centrifuged plate was replaced with fresh Complete Medium containing 10 ng/mL murine IL-5 (Peprotech). Medium with IL-5 was changed every 2 days thereafter. On Day 8, some cultures were treated with LPS from E. coli serotype O55:B5 (Sigma), ultrapure LPS from S. minnesota (InvivoGen, San Diego, Calif.), monophosphoryl lipid A from S. minnesota R595LPS (InvivoGen), synthetic lipid A from E. coli (InvivoGen), Pam2CSK4 (InvivoGen), Pam3CSK4 (InvivoGen), imiquimod (InvivoGen), CL264 (InvivoGen), or poly(I:C) (InvivoGen) at indicated doses in the presence of IL-5.
After TLR ligand exposure for 18-24 hours, the medium was changed to Complete Medium with IL-5 at 10 ng/ml for the remaining culture period. For neutralization experiments, monoclonal anti-mouse IFN-γ (clone 37895; R&D Systems, Minneapolis, Minn.) or rat IgG2a isotype antibody was added at 0.3 μg/ml to media during LPS exposure and to Complete Medium with IL-5 thereafter. For some experiments, cytokines (IL-6 at 0.1 ng/ml, IL-10 at 2 ng/ml, IFN-γ at 0.5 ng/ml, TNF-α at 0.5 ng/ml, or the combination of all four) were added on Day 8 to IL-5-containing Complete Medium. Cells were cultured in the presence of these individual cytokines or the cytokine combination for the remainder of the culture period.
Whole bone marrow or LDBM cells were washed twice in 1×PBS containing 1% FBS and 1 mM EDTA at a concentration of 4×10^6 cells/mL and blocked with 0.5 μg rat anti-mouse CD16/CD32 (BD Bioscience, San Diego, Calif.) for 5 minutes at 4° C. Cells were incubated with fluorescent-labeled antibodies for 30 minutes at 4° C. and then washed twice and resuspended in flow cytometry buffer. Antibodies used include rat anti-mouse CD34-FITC (BD Bioscience), rat anti-mouse TLR4-PE (Imgenex, San Diego, Calif.), rat anti-mouse Siglec-F-PE (BD Bioscience), and rat anti-mouse CCR3-FITC (R&D Systems). All flow cytometric data were acquired using a FACS Calibur or FACS Canto flow cytometer (BD Bioscience).
FIG. 3A. A schematic of LPS exposure for eosinophil progenitors is depicted. LDBM cells were stimulated with SCF and FLT3L for 4 days and subsequently cultured with IL-5 for 4 days to initiate eosinophil differentiation. On Day 8, cultured cells were stimulated with LPS and IL-5 for 18-24 hours, after which the medium was changed, and the cells were cultured for another 6 days with IL-5 alone.

Molecule | number of mature eosinophils produced (eosinophil yield)
IFN-γ: cytokine added at 0.5 ng/ml to IL-5-containing medium | no significant effect
IL-6: cytokine added at 0.1 ng/ml to IL-5-containing medium | no significant effect
TNF-α | no significant effect
B1 | no significant effect

Same assay, conditions: wild-type cultures; TLR ligand exposure 18-24 hours on Day 8 in presence of IL-5, then IL-5 alone; yield at day 11-15

Molecule | eosinophil yield (eosinophil production)
CCCCNc1nc(N)c2[nH]c(=O)n(Cc3ccc(C(=O)NCC(=O)O)cc3)c2n1 [CL264] | significant suppression of eosinophil yield
CC(C)Cn1cnc2c(N)nc3ccccc3c21 [imiquimod] | significant suppression of eosinophil yield
Pam2CSK4 | dose-dependent reduction in eosinophil yield
Pam3CSK4 | dose-dependent reduction in eosinophil yield
monophosphoryl lipid A [MPLA] | dose-dependent suppression of eosinophil production
poly(I:C) | no effect on eosinophil production
synthetic monophosphoryl lipid A [sMPLA] | significant suppression of eosinophil production at higher doses
